Measurements as given in PubChem BioAssay (NCI).
Where “and” joins values, the source holds several entries; their conditions need not be identical. Equal values may be shown once.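 1) Cells in 96-well plates. 2) Compound, 48 h, 5 concentrations. 3) Linear interpolation between surrounding doses. 4) Unreached endpoint = highest concentration. GI50 marks 50% less growth. The concentration for full growth arrest is given as TGI.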

Columns and labels:
Assay in all cases: NCI-60 cell line screen, 48 h
UACC-62 melanoma = tested on: UACC-62 melanoma
MALME-3M melanoma = tested on: MALME-3M melanoma
LOX IMVI melanoma = tested on: LOX IMVI melanoma
SF-539 CNS = tested on: SF-539 CNS
NCI/ADR-RES ovarian = tested on: NCI/ADR-RES ovarian
MOLT-4 leukemia = tested on: MOLT-4 leukemia
NCI-H460 lung = tested on: NCI-H460 lung
MDA-MB-231 breast = tested on: MDA-MB-231 breast
SW-620 colon = tested on: SW-620 colon
ACHN renal = tested on: ACHN renal

| Structure (SMILES) | GI50 (UACC-62 melanoma) | GI50 (MALME-3M melanoma) | TGI (MALME-3M melanoma) | GI50 (LOX IMVI melanoma) | GI50 (SF-539 CNS) | TGI (SF-539 CNS) | GI50 (NCI/ADR-RES ovarian) | TGI (NCI/ADR-RES ovarian) | GI50 (MOLT-4 leukemia) | GI50 (NCI-H460 lung) | TGI (NCI-H460 lung) | GI50 (MDA-MB-231 breast) | TGI (MDA-MB-231 breast) | GI50 (SW-620 colon) | TGI (SW-620 colon) | GI50 (ACHN renal) | TGI (UACC-62 melanoma) | TGI (LOX IMVI melanoma) | TGI (ACHN renal) | TGI (MOLT-4 leukemia) |
| --- | --- | --- | --- | --- | --- | --- | --- | --- | --- | --- | --- | --- | --- | --- | --- | --- | --- | --- | --- | --- |
| COc1ccc(C2CC(c3ccc4ccccc4c3)=NN2c2nc(O)c(C3=c4cc(Cl)ccc4=NC3=O)s2)cc1 (centres undefined) | 0.0296 µM and < 0.005 µM | 0.0182 µM and < 0.005 µM | 0.0363 µM and < 0.005 µM | 0.0223 µM and < 0.005 µM | 0.0195 µM and < 0.005 µM | 0.0402 µM and < 0.005 µM | 0.0923 µM | 50 µM | 0.0329 µM and < 0.005 µM | 0.0216 µM | 0.0472 µM | 0.021 µM | 0.0462 µM | 0.0187 µM and < 0.005 µM | 0.0374 µM and < 0.005 µM | 0.025 µM and < 0.005 µM |  |  |  |  |
| CC(=O)OCC1OC([S-])C(OC(C)=O)C(OC(C)=O)C1OC(C)=O.[Au+].c1ccc(CN2[CH-]N(Cc3ccccc3)C(c3ccccc3)=C2c2ccccc2)cc1 | 2.15 µM and 0.249 µM | 1.93 µM and 0.278 µM | 4.29 µM and 1.24 µM | 1.65 µM and 0.563 µM | 2.96 µM and 0.855 µM | 10.4 µM and 3.81 µM | 6.35 µM and 1.68 µM | 21.8 µM and 9.04 µM | 3.29 µM and 0.399 µM | 3.71 µM and 0.732 µM | 15.5 µM and 2.42 µM | 1.84 µM and 0.281 µM | 3.62 µM and 0.951 µM | 2.02 µM and 0.779 µM | 4.61 µM and 2.08 µM | 1.87 µM and 0.674 µM | 5.62 µM and 1.14 µM | 3.1 µM and 1.32 µM | 3.62 µM and 2.72 µM |  |
| CN(CO)c1nc(N(C)CO)nc(N(C)CO)n1 | 17.2 µM | 17.5 µM | 34.2 µM and 26.1 µM | 16.2 µM | 23.6 µM and 17.2 µM | 52.4 µM and 36.9 µM | 21.7 µM and 20.7 µM | 54.6 µM and 57.4 µM | 23.5 µM | 17.2 µM and 13.9 µM | 43.6 µM and 42.8 µM | 18.3 µM | 42.9 µM and 46.9 µM | 11.5 µM | 43.6 µM and 70.6 µM |  | 33.8 µM and 25.4 µM | 36.6 µM and 26.8 µM | 79.2 µM and 75.6 µM | 77 µM and 128 µM |
| N#Cc1ccc(O)c(C2=NCC(c3ccc(-c4ccccc4)cc3)O2)c1 (centres undefined) | 0.407 µM | 1.71 µM | 14.3 µM | 0.0579 µM | 0.517 µM | 11.4 µM | 0.148 µM | 5.7 µM | 0.482 µM | 0.279 µM | 8.75 µM | 0.823 µM | 18.5 µM | 0.387 µM | 31.2 µM | 0.418 µM | 1.61 µM | 10.8 µM | 12.4 µM | 27.7 µM |
| C=C1C(=O)O[C@H]2[C@H]1CC/C(CNC(=O)C(C)c1ccc(CC(C)C)cc1)=C\CC[C@@]1(C)O[C@@H]21 (some centres undefined) | 1.67 µM | 1.71 µM | 3.36 µM | 1.45 µM | 1.58 µM | 3.07 µM | 2.07 µM | 5.47 µM | 2.39 µM | 1.94 µM | 3.97 µM | 1.96 µM | 4 µM | 1.69 µM | 3.55 µM | 1.45 µM | 3.38 µM | 2.81 µM | 2.76 µM | 9.66 µM |
| COc1ccc2c(c1)C(=O)/C(=C/c1cccc(OCC(=O)c3ccc([N+](=O)[O-])cc3)c1)CO2 | 2.82 µM | 2.91 µM | 10.9 µM | 1.47 µM | 2.33 µM | 6.12 µM | 2.03 µM | 5.02 µM | 3.03 µM | 3.2 µM | 11.6 µM | 3.67 µM | 14.2 µM | 1.45 µM | 2.96 µM | 2.32 µM | 9.36 µM | 2.88 µM | 6.41 µM | 17.9 µM |
| N#Cc1ccc(C(=O)c2cnn(-c3ccc(F)cc3)c2N)cc1 | > 25 µM | > 25 µM | > 25 µM | > 25 µM | > 25 µM | > 25 µM | > 25 µM | > 25 µM | > 25 µM | > 25 µM | > 25 µM | > 23.3 µM | > 25 µM | > 25 µM | > 25 µM | > 25 µM | > 25 µM | > 25 µM | > 25 µM | > 25 µM |
| CSc1nc(SC)c2c(C)c(Br)[nH]c2n1 |  |  | > 100 µM |  |  | > 100 µM |  | > 100 µM |  |  | > 100 µM |  | > 100 µM |  | > 100 µM |  | > 100 µM | > 100 µM | > 100 µM | > 100 µM |
| Cn1c2ccccc2c2c(=O)n(CCCC(=O)NCCc3cnc[nH]3)c3c(-c4ccccc4)nnn3c21 | 9.87 µM | 7.55 µM | 16.7 µM | 11.2 µM | 9.26 µM | 17.2 µM | > 50 µM | > 50 µM | 3.95 µM | 10.9 µM | 24.3 µM | 9.27 µM | 18.6 µM | 13 µM | 30.2 µM | 9.74 µM | 17.6 µM | 22.9 µM | 17.9 µM | 21.5 µM |
| Fc1ccc(-c2c(-c3ccncc3)[nH]c3cccnc23)cc1 | 12 µM | > 21.9 µM | > 25 µM | > 21.7 µM | > 25 µM | > 25 µM | > 25 µM | > 25 µM | > 25 µM | 18.3 µM | > 25 µM | > 25 µM | > 25 µM | > 25 µM | > 25 µM | 1.63 µM | > 25 µM | > 25 µM | > 25 µM | > 25 µM |
| CN1CCN(C(=O)[C@@]2(C)CC[C@]3(C)CC[C@]4(C)C(=CC[C@@H]5[C@@]6(C)CC[C@H](OC(=O)c7cccnc7)C(C)(C)[C@@H]6CC[C@]54C)[C@@H]3C2)CC1 | 1.84 µM | 1.78 µM | 3.54 µM | 1.65 µM | 1.6 µM | 3.06 µM | 1.75 µM | 3.72 µM | 1.92 µM | 1.78 µM | 3.33 µM | 2.03 µM | 3.95 µM | 1.79 µM | 3.59 µM | 1.88 µM | 3.46 µM | 3.06 µM | 3.39 µM | 4.78 µM |
| CN(CCCCCCCCNc1ccnc2ccccc12)Cc1ccc(-c2ccc(-c3ccc(C#N)cc3)s2)cc1 | 1.53 µM | 0.903 µM | 2.21 µM | 0.164 µM | 0.797 µM | 2.23 µM | 1.2 µM | 3.23 µM | 0.368 µM | 0.367 µM | 1.25 µM | 1.46 µM | 3.06 µM | 0.178 µM | 0.432 µM | 1.28 µM | 2.92 µM | 0.31 µM | 2.55 µM | 2.51 µM |
| CCCCCCCCCCCCSC1=CC(=O)C=CC1=O | 7.59 µM | 13.1 µM | > 50 µM | 1.25 µM | 1.23 µM | 3.5 µM | 1.65 µM | > 20.6 µM | 0.218 µM | 13.9 µM | > 50 µM | 5.36 µM | 17.1 µM | 17.9 µM | > 50 µM | 9.13 µM | > 36.9 µM | 4.3 µM | > 42.4 µM | 8.97 µM |
